Experimental data from ChEMBL document CHEMBL1130642, “Conformationally constrained NO synthase inhibitors: rigid analogs of L-N-iminoethylornithine” (Bioorg Med Chem Lett, 1998).

Target: T1, Nitric oxide synthase, inducible (Mus musculus, UniProt P29477)
T1 sequence (P29477 whole entry): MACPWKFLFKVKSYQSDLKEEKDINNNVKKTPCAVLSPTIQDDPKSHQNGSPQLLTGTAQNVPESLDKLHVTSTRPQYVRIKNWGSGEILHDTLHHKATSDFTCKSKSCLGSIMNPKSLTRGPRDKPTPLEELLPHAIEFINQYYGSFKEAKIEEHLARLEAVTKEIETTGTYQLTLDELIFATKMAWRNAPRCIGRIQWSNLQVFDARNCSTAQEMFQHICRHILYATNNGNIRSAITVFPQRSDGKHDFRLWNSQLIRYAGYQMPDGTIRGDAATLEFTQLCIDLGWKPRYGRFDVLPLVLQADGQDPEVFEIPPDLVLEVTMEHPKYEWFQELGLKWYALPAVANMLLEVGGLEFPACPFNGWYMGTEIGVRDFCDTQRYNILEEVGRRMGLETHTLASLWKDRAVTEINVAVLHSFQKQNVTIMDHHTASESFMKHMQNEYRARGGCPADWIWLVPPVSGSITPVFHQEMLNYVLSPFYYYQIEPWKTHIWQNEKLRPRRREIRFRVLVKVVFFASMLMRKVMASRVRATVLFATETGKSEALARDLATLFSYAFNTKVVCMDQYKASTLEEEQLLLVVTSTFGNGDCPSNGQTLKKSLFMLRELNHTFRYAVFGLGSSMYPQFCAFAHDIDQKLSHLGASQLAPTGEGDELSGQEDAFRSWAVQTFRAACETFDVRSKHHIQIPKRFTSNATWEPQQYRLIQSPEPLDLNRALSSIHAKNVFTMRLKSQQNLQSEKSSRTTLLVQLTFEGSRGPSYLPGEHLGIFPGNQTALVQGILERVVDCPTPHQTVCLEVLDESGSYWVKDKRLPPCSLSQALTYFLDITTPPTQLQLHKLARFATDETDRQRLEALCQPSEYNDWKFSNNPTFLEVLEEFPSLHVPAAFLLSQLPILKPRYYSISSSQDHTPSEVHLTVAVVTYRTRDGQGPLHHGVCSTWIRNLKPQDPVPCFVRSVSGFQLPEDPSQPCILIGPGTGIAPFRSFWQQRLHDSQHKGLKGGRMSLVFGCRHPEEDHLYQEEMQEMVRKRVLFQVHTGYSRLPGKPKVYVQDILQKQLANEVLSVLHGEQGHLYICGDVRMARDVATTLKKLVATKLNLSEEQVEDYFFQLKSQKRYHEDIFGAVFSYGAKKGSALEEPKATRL
Assay: Compound was evaluated for inhibitory activity against iNOS obtained from RAW 264.7 cells.
Assay type: cell-based

| SMILES | IC50 [µM] |
| --- | --- |
| COC(=O)[C@@H](N)[C@@H]1CC[C@@H](N=C(C)N)C1 | > 200 |
| NC1=NC[C@@H](C[C@H](N)C(=O)O)C1 | 36 |
| CC(=N)NCCC[C@H](N)C(=O)O [L-NIO] | 9 |
| COC(=O)[C@@H](N)[C@@H]1CC[C@H](/N=C(/C)N)C1 | > 200 |
| COC(=O)[C@@H](N)[C@H]1CC[C@H](/N=C(/C)N)C1 | 50 |
| COC(=O)[C@@H](N)[C@H]1CC[C@@H](N=C(C)N)C1 | 47 |

Next, values leading:

| IC50 [µM] | SMILES |
| --- | --- |
| > 200 | CC(=N)N1CC[C@@H](C[C@H](N)C(=O)O)C1 |
| 25 | NC1=NC[C@H](C[C@H](N)C(=O)O)C1 |
| 40 | CC(=N)N1CC[C@H](C[C@H](N)C(=O)O)C1 |
